The record followed here is US20030054348A1, “Methods of identifying the activity of gene products” (priority 2000, published 2003).

This test relates to 5′ UTR of HCV mRNA. The experiment in a line: Phage panning and phage Elisa on biotinylated RNA target. The test is classed as binding. Particulars: phage clones; positive if A405 >2-fold over background. On the procedure: Surrogate peptides were obtained by panning a portion of the 5′ UTR of HCV mRNA using both the 20 mer and 40 mer random libraries. All solutions and surfaces were pretreated with DEPC or RNaseZap (Ambion, Inc.), respectively, to eliminate RNase contamination that may compromise the integrity of the RNA. Biotinylated—RNA target was diluted to 1 mg/ml in binding buffer (PBS containing 1 mM MgCl2), denatured at 65° C. for 5 min and reannealed by slow cooling to room temperature to allow for appropriate refolding. The synthetic biotinylated-RNA target had the following sequence, 5′-biotin′AA UUGCCAGGACGACCGGGUCCUUUCUUGGAU CM CCC GCU CM UGC CUG GAG AUU-3′. Reannealed RNAs were stored in small aliquots (10-25 μl/tube) at −20° C. Microtiter wells were treated with RNaseZap (Ambion, Inc.) before use. One hundred microliters of RNA solution diluted to 2.5 ng/μl was added to an appropriate number of wells in a 96-well microtiter plate precoated with Streptavidin (Pierce) and incubated for 1 hr at room temperature. Unbound streptavidin was then blocked with 50 μl of 2 mM biotin at room temperature for 1 hr. Four wells were used for each round of panning and 100 μl phage was added to each well. Pahge were precipitated with RNase-free 6% PEG 8000+0.3 M NaCl, washed with the same solution once and resuspended in RNase-free PBS+1 mM MgCl2+Superasin (RNase inhibitor from Ambion, Inc.). For the first round, the input phage titer was 1×10^13 cfu/ml. For rounds 2 and 3, the input phage titer was approximately 10^11 cfu/ml. Phage were allowed to bind for two to three hours at room temperature. The wells were then quickly washed 13 times with 400 μl/well of PBS. Bound phage were eluted by incubation with 150 μl/well of 50 mM glycine-HCl, pH 2.2+0.1% BSA for 5 min. The resulting solution was then neutralized with Tris-HCl, pH 8.0. Log phase TG1 cells were infected with the eluted phage by incubation at 37° C. for 1 hr. Helper phage (M13KO7) was then added (multiplicity of infection(MOI)=15) and cells incubated in the presence of 50 μg/ml ampicillin and 2% glucose for 1 hr at 37° C. with shaking at 250 rpm. Following infection, cells were pelleted, resuspended in the initial culture volume of 2×YT containing 50 μg/ml ampicillin and 50 μg/ml Kanamycin and grown overnight at 37° C. with shaking at 225 rpm. Cells from the overnight culture were pelleted and supernatant containing phage was recovered. Phage was precipitated with 6% PEG 8000, 300 mM NaCl and chilled on ice for 1 hr. […]
For Elisa analysis of individual clones, colonies were picked and phage prepared as described above using helper phage, M13KO7. […] Plates were analyzed at 405 nm using a SpectraMax 340 plate reader (Molecular Devices) and SoftMax Pro software. […]
For the substance FTTPRHLSGRTVQMMRDSTS [HCV-3-C3], the “Binding to HCV mRNA target” value was “binders”. On to “LLVTGQFP--SQLLLGGAVCGP--STPRLRTGLCRLSGT (LLVTGQFPSQLLLGGAVCGPSTPRLRTGLCRLSGT) [HCV-3-F5]”, for which the “Binding to HCV mRNA target” value was “binders”. Turning to “RRTCGDPAAMLERLSCRAGDYRGASHTGRLLNLRGMHQYP [HCV-3-H8]”, the “Binding to HCV mRNA target” value is on record as “binders”. In the case of TSGESSGDRTRRVLTSSSARTILPN [HCV-NG-D9], the “Binding to HCV mRNA target” value is reported as “binders”.
